The subject of test [1] is SU-DHL-4 cells. Briefly: Inhibitory effect on cell viability in SU-DHL-4 cell line (Test Example 1). It is filed as cell-based, human. Particulars: 72 hours; for IC50: SU-DHL-4 (wild type) cells, calculated using the measurement results of test example 1, read-out: SU-DHL-4 WT IC50; for IC90: SU-DHL-4 cells, Cell Counting Kit-8, concentration showing 90% inhibition of cell viability, read-out: SU-DHL-4 Cell Viability Inhibition Rate IC90. Summed up: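 SU-DHL-4 cells were grown at 37° C. under 5% CO2 in RPMI1640 with 10 vol % heat-inactivated FBS plus penicillin/streptomycin, seeded and precultured for 18 to 25 hours, then exposed to test compound at 0.1 vol % DMSO for 72 hours. Viability was read with Cell Counting Kit-8 by absorbance at 450 nm.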

Test [2] has as its system DCAF16 KO SU-DHL-4 cells. Put plainly: Inhibitory effect on cell viability using SU-DHL-4 DCAF16 knock out (KO) cell line (Test Example 6). Type of test: cell-based, human. Particulars: for Activity Attenuation Ratio: (SU-DHL-4 DCAF16 KO IC50)/(SU-DHL-4 WT IC50); for IC50: DCAF16 KO SU-DHL-4 cells, 72 hours, Cell Counting Kit-8, 50% inhibition of cell viability. The protocol: The human DLBCL cell line SU-DHL-4 was purchased from DSMZ. SU-DHL-4 was passaged using RPMI1640 medium containing 10 vol % FBS. After the Cas9 gene was introduced, the cells were cultured in the above medium containing 0.01 mg/mL blasticidin (InvivoGen, Cat No. ant-bl-1). After introduction of sgRNA, the cells were cultured in the above medium containing 0.0001 mg/mL puromycin dihydrochloride (SIGMA, Cat No. P9020-10 ML). The culture conditions were 37° C. and 5% CO2.
Edit-R Lentiviral hEF1α-Blast-Cas9 Nuclease Particles (Cat No. VCAS10126) was used as a lentivirus for expressing Cas9 in human cell lines. Three types of Edit-R Human DCAF16 Lentiviral sgRNA (Cat No. VSGH10142-246568260; DNA target sequence […] (SEQ ID NO: 1), Cat No. VSGH10142-246568262; DNA target sequence […] (SEQ ID NO: 2) and Cat No. VSGH10142-246568263; DNA target sequence […] (SEQ ID NO: 3)) were used as lentiviruses for introducing DCAF16 sgRNA. As a control, Edit-R Lentiviral sgRNA Non-targeting Control #1 (Cat No. VSGC10215) was used. All lentiviruses were purchased from Dharmacon and stored at −80° C. until use.
SU-DHL-4 was suspended at 4×10^5 cells/mL in RPMI 1640 without FBS, 0.25 mL of the suspension was added to a 24-well plate, and the cells were cultured overnight. The next day, 0.003 mL of virus particles of Edit-R Lentiviral hEF1α-Blast-Cas9 Nuclease Particles was added. After culturing in a CO2 incubator for 4 hours, RPMI 1640 containing 0.75 mL of 10 vol % FBS was added. After culturing in a CO2 incubator for about 48 hours, the medium was replaced with RPMI1640 containing 10 vol % FBS, and the cells were cultured in a CO2 incubator. Four days after infection, the medium was replaced with a medium containing 0.01 mg/mL blasticidin (InvivoGen, Cat No. ant-bl-1). Then, the cells were passaged once every 2 to 3 days and thus twice in total (that is, cultured for 1 week) to obtain SU-DHL-4/Cas9, which is a Cas9-introduced SU-DHL-4 cell line.
(6) sgRNA infection SU-DHL-4/Cas9 was suspended at 4×10^5 cells/mL in RPMI 1640 without FBS, 0.25 mL of the suspension was added to a 24-well plate, and the cells were cultured overnight. The next day, a total of 4 types of sgRNA virus particles, 1 type of Control and 3 types targeting DCAF16 were added to the respective wells by 0.03 mL. After culturing in a CO2 incubator for 5 hours, RPMI 1640 containing 0.75 mL of 10 vol % FBS was added.
After culturing in a CO2 incubator for about 48 hours, the medium was replaced with RPMI1640 containing 10 vol % FBS, and the cells were cultured in a CO2 incubator. Four days after infection, the medium was replaced with a medium supplemented with 0.01 mg/mL puromycin dihydrochloride (SIGMA, Cat No. P9020-10 ML). Then, the cells were passaged once or twice a week for 2 weeks, and a cell stock was prepared using CELLBANKER I plus (Takara Bio, Cat No. CB-021). Cell line stock was stored at −80° C. Using Edit-R Lentiviral sgRNA Non-targeting Control #1, the Negative Control sequence was introduced into the SU-DHL-4 cell line, which was referred to as SU-DHL-4 NC strain, and using Edit-R Human DCAF16 Lentiviral sgRNA, […] sequence (SEQ ID NO: 1) was introduced into the SU-DHL-4 cell line, which was referred to as SU-DHL-4 DCAF16 KO1 strain, […] sequence (SEQ ID NO: 2) was introduced into the SU-DHL-4 cell line, which was referred to as SU-DHL-4 DCAF16 KO2 strain, and […] sequence (SEQ ID NO: 3) was introduced into the SU-DHL-4 cell line, which was referred to as SU-DHL-4 DCAF16 KO 3 strain.
The cultured DCAF16 KO SU-DHL-4 cells were seeded at 2000 cells/well in a transparent 384-well plate (Code No. 781182, Greiner bio-one). After seeding, the cells were pre-cultured at 37° C. in a carbon dioxide gas incubator for 18 to 25 hours. […]
(Tetrazolium dyes change colour on reduction, which living cells bring about.)

Read-outs that look alike come from different tables or passages of the source.

Data on ten compounds can be found in patent US20220378923A1, “BET DEGRADER” (KYOWA KIRIN CO., LTD., priority 2019, published 2022).

For the compound `CCC(=O)N1c2ccccc2[C@H](N[C@H]2CC[C@H](NC(=O)C#CCNC(=O)[C@H]3CC[C@H](N[C@@H]4C[C@H](C)N(C(=O)CC)c5ccccc54)CC3)CC2)C[C@@H]1C` (relative stereo) [Compound 9d, (1R,4R)-4-(((2S*,4R*)-2-Methyl-1-propionyl-1,2,3,4-tetrahydroquinolin-4-yl)amino)-N-(4-(((1R,4R)-4-(((2S,4R)-2-methyl-1-propionyl-1,2,3,4-tetrahydroquinolin-4-yl)amino)cyclohexyl)amino)-4-oxobut-2-yn-1-yl)cyclohexane-1-carboxamide], in test [1], the IC50 is 0.75 nM and the concentration for an effect of 90% (IC90) came out at 0.93 nM. For the same compound, in test [2], the “Activity Attenuation Ratio” value was found to be 348 and the IC50 worked out at 263 nM.

As for `CCC(=O)N1c2ccccc2[C@H](Nc2ccc(C(=O)N3CCn4c(-c5ccc(N[C@@H]6C[C@H](C)N(C(=O)CC)c7ccccc76)cc5)cnc4C3)cc2)C[C@@H]1C` [Compound 3e, 1-[(2S,4R)-2-Methyl-4-({4-[3-(4-{[(2S,4R)-2-methyl-1-propionyl-1,2,3,4-tetrahydroquinolin-4-yl]amino}phenyl)-5,6,7,8-tetrahydroimidazo[1,2-a]pyrazine-7-carbonyl]phenyl}amino)-3,4-dihydroquinolin-1(2H)-yl]propan-1-one], the half-inhibitory concentration (IC50) in test [1] (Homo sapiens) is 0.1 nM; in test [2] (Homo sapiens), 951 nM. Further, the “Activity Attenuation Ratio” value in test [2] came out at 9515.

For the compound `CCC(=O)N1c2ccccc2[C@H](Nc2ccc(NC(=O)CCCC(=O)NC3CCC(N[C@@H]4C[C@H](C)N(C(=O)CC)c5ccccc54)CC3)cc2)C[C@@H]1C` (stereo partly drawn) [Compound 7o, N^1-((1R,4r)-4-(((2S,4R)-2-Methyl-1-propionyl-1,2,3,4-tetrahydroquinolin-4-yl)amino)cyclohexyl)-N^5-(4-(((2S,4R)-2-methyl-1-propionyl-1,2,3,4-tetrahydroquinolin-4-yl)amino)phenyl)glutaramide], in test [1], the IC50 was 0.53 nM and the IC90 came to 1.15 nM. For the same compound, in test [2], the “Activity Attenuation Ratio” value stood at 750 and 397 nM corresponded to half-maximal inhibition (IC50).

On to `CCC(=O)N1c2ccccc2[C@H](Nc2ccc(C(=O)N3CC(C(=O)N[C@H]4CC[C@H](N[C@@H]5C[C@H](C)N(C(=O)CC)c6ccccc65)CC4)C3)cc2)C[C@@H]1C` [Compound 8r, 1-(4-(((2S,4R)-2-Methyl-1-propionyl-1,2,3,4-tetrahydroquinolin-4-yl)amino)benzoyl)-N-((1R,4R)-4-(((2S,4R)-2-methyl-1-propionyl-1,2,3,4-tetrahydroquinolin-4-yl)amino)cyclohexyl)azetidine-3-carboxamide], for which, in test [1], the IC50 was 0.3 nM and the IC90 was determined as 0.47 nM. Further, in test [2], the “Activity Attenuation Ratio” value was found to be 224 and the IC50 came out at 67.4 nM.

With `CCC(=O)N1c2ccccc2[C@H](Nc2ccc(NC(=O)CCNC(=O)c3ccc(N[C@@H]4C[C@H](C)N(C(=O)CC)c5ccccc54)cc3)cc2)C[C@@H]1C` (relative stereo) [Compound 2f, 4-{[(2S,4R)-2-Methyl-1-propionyl-1,2,3,4-tetrahydroquinolin-4-yl]amino}-N-{3-[(4-{[(2S*,4R*)-2-methyl-1-propionyl-1,2,3,4-tetrahydroquinolin-4-yl]amino}phenyl)amino]-3-oxopropyl}benzamide], the IC50 in test [1] (Homo sapiens) was 0.09 nM; in test [2] (Homo sapiens), 100 nM. Further, the “Activity Attenuation Ratio” value in test [2] came to 1111.

In the case of `Cc1sc2c(c1C)C(c1ccc(C(=O)N3CCC(NC(=O)c4ccc(C5=N[C@@H](CC(=O)OC(C)(C)C)c6nnc(C)n6-c6sc(C)c(C)c65)cc4)CC3)cc1)=NCc1nnc(C)n1-2` [Compound 14p, tert-Butyl (S)-2-(2,3,9-trimethyl-4-(4-((1-(4-(2,3,9-trimethyl-6H-thieno[3,2-f][1,2,4]triazolo[4,3-a][1,4]diazepin-4-yl)benzoyl)piperidin-4-yl)carbamoyl)phenyl)-6H-thieno[3,2-f][1,2,4]triazolo[4,3-a][1,4]diazepin-6-yl)acetate], the IC50 in test [1] (Homo sapiens) was 1 nM; in test [2] (Homo sapiens), 407 nM. The “Activity Attenuation Ratio” value in test [2] amounted to 408.

Consider `CCC(=O)N1c2ccccc2[C@H](Nc2ccc(-n3cc(CCNC(=O)[C@H]4CC[C@H](N[C@@H]5C[C@H](C)N(C(=O)CC)c6ccccc65)CC4)nn3)cc2)C[C@@H]1C` [Compound 8a, (1R,4r)-4-(((2S,4R)-2-Methyl-1-propionyl-1,2,3,4-tetrahydroquinolin-4-yl)amino)-N-(2-(1-(4-(((2S,4R)-2-methyl-1-propionyl-1,2,3,4-tetrahydroquinolin-4-yl)amino)phenyl)-1H-1,2,3-triazol-4-yl)ethyl)cyclohexane-1-carboxamide], for which the IC90 in test [1] worked out at 0.87 nM.

As for `Cc1sc2c(c1C)C(c1ccc(C(=O)NCc3cn(-c4ccc(C5=N[C@@H](CC(=O)OC(C)(C)C)c6nnc(C)n6-c6sc(C)c(C)c65)cc4)nn3)cc1)=N[C@@H](CC(=O)OC(C)(C)C)c1nnc(C)n1-2` [Compound 3b, tert-Butyl 2-[(S)-4-(4-{4-[(4-{(S)-6-[2-(tert-butoxy)-2-oxoethyl]-2,3,9-trimethyl-6H-thieno[3,2-f][1,2,4]triazolo[4,3-a][1,4]diazepin-4-yl}benzamide)methyl]-1H-1,2,3-triazol-1-yl}phenyl)-2,3,9-trimethyl-6H-thieno[3,2-f][1,2,4]triazolo[4,3-a][1,4]diazepin-6-yl]acetate], the IC90 in test [1] amounted to 0.18 nM.

Take `CCC(=O)N1c2ccccc2[C@H](Nc2ccc(NC(=O)CCCC(=O)Nc3ccc(N[C@@H]4C[C@H](C)N(C(=O)CC)c5ccccc54)cc3)cc2)C[C@@H]1C` [Compound 6k, N^1,N^5-Bis(4-(((2S,4R)-2-methyl-1-propionyl-1,2,3,4-tetrahydroquinolin-4-yl)amino)phenyl)glutaramide]: the “Activity Attenuation Ratio” value in test [2] was found to be 520. The same compound had an IC50 in test [2] (Homo sapiens) of 31.2 nM.

Turning to `CCC(=O)N1c2ccccc2[C@H](Nc2ccc(C(=O)NCCCNC(=O)c3ccc(C4=N[C@@H](CC(=O)OC(C)(C)C)c5nnc(C)n5-c5sc(C)c(C)c54)cc3)cc2)C[C@@H]1C` [Compound 1h, tert-Butyl 2-[(S)-2,3,9-trimethyl-4-(4-{[3-(4-{[(2S,4R)-2-methyl-1-propionyl-1,2,3,4-tetrahydroquinolin-4-yl]amino}benzamide)propyl]carbamoyl}phenyl)-6H-thieno[3,2-f][1,2,4]triazolo[4,3-a][1,4]diazepin-6-yl]acetate], in test [1], the IC90 worked out at 0.27 nM.

For orientation: IC50 means the point on the concentration scale where inhibition reaches its midpoint. What is called IC90 is the point of the concentration-response curve where the effect stands at 90%.
